Experiments:
human TOR = target: T1, human TOR (Homo sapiens, UniProt P42345); assay: mTOR enzyme assay (DELFIA, His6-S6K substrate); assay type: biochemical; conditions: read-out: mTOR Kinase Avg. IC50
T1 construct: FLAG

PI3K-gamma = PI3K-gamma (Homo sapiens, UniProt P48736); assay: PI3K-gamma fluorescence polarization assay; assay type: biochemical; conditions: PI3Kγ Avg. IC50
In short: (§1)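 Reactions in 5 mM HEPES pH 7, 2.5 mM MgCl2, 25 μM ATP with 2.5 μM diC8-PI(4,5)P2 and 5 ng enzyme, 1 h at 25° C, then EDTA quench. Product detected by FP using GST-GRP1 PH domain (100 nM) and BODIPY-TMR-IP4 tracer (5 nM); final DMSO 0.8%.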

PI3K-delta = PI3K-delta (Homo sapiens, UniProt O00329); assay: PI3K-delta fluorescence polarization assay; assay type: biochemical; conditions: read-out: PI3Kδ Avg. IC50
PI3K-beta = PI3K-beta (Homo sapiens, UniProt P42338); assay: PI3K-beta fluorescence polarization assay; assay type: biochemical; conditions: read-out: PI3Kβ Avg. IC50
In short: as §1

PI3K-alpha = PI3K-alpha (Homo sapiens, UniProt P42336); assay: PI3K-alpha fluorescence polarization assay; assay type: biochemical; conditions: read-out: PI3Kα Avg. IC50
PI3K-alpha, sequence (P42336 whole entry, species assumed): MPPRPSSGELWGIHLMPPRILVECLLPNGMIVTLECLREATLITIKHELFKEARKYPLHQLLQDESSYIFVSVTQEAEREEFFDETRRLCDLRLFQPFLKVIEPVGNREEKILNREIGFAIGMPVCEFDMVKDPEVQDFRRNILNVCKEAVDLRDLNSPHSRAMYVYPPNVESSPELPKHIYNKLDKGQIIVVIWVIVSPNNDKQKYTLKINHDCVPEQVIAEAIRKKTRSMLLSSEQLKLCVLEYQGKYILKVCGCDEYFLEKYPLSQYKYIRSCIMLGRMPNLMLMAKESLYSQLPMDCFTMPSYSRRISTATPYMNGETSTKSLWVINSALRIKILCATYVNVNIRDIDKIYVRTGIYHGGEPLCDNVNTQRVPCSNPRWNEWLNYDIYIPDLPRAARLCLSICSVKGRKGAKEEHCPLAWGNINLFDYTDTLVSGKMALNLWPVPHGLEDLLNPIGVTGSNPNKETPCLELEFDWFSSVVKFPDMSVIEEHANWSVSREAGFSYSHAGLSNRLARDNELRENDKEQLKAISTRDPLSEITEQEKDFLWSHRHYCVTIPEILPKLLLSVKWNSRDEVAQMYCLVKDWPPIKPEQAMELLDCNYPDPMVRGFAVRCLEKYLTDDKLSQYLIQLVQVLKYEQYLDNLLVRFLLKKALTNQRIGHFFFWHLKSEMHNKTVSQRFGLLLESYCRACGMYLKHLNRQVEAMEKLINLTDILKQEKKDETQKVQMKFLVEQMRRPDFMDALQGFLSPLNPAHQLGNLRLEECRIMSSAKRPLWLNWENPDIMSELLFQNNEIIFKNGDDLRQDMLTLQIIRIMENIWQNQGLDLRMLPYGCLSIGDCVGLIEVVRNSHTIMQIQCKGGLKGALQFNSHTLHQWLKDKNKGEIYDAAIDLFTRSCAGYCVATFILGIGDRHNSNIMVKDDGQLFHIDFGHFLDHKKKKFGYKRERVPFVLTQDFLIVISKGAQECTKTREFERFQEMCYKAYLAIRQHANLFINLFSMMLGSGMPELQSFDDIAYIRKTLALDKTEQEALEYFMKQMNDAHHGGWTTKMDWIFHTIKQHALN
PI3K-alpha, sequence (P27986 whole entry partner, species assumed): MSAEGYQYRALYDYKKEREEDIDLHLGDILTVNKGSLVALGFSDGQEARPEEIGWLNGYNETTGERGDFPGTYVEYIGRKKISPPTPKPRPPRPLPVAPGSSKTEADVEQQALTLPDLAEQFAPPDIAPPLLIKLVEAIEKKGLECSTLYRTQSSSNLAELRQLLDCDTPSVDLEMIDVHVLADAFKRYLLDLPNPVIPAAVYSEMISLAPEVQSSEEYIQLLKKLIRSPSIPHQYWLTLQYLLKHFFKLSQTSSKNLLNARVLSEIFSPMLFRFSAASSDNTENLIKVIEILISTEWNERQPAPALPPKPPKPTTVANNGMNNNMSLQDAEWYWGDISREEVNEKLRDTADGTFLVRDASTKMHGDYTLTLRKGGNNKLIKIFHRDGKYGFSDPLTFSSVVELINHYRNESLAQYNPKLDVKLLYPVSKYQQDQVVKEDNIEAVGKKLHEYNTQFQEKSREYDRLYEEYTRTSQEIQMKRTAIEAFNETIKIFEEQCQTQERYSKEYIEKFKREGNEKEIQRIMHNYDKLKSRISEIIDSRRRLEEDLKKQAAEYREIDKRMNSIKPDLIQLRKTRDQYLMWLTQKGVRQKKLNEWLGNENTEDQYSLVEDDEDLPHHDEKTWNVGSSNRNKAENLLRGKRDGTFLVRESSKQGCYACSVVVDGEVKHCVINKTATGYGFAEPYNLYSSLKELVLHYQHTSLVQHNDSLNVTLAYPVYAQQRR

PI3K-delta, sequence (O00329 whole entry, species assumed): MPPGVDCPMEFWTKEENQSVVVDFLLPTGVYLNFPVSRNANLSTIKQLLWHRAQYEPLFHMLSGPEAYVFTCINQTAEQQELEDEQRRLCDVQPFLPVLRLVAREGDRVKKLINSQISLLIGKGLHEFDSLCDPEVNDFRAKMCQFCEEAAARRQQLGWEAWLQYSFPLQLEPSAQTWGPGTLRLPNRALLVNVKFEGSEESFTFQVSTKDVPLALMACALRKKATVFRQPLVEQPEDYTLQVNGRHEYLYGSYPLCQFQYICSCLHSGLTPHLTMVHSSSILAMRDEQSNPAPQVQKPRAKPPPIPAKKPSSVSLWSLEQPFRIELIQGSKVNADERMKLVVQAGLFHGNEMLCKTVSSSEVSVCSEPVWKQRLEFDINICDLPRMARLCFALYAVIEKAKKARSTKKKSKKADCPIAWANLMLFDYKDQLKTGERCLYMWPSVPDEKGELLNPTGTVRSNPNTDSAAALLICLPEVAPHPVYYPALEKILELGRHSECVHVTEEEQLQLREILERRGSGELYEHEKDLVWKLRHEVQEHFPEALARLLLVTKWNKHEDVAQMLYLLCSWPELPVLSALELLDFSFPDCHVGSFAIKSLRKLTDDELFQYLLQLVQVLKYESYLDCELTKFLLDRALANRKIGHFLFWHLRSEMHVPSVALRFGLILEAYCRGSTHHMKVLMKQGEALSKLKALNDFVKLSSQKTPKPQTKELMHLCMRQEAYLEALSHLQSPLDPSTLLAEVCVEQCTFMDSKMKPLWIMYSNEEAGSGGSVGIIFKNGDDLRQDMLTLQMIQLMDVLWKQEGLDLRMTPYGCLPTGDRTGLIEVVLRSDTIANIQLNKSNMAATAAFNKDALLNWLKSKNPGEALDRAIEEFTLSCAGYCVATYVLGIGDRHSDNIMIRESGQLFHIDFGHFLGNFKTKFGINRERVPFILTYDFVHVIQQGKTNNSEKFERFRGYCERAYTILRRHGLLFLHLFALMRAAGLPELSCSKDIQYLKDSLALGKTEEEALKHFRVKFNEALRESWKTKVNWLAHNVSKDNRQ
PI3K-delta, sequence (P27986 whole entry partner, species assumed): as the sequence (P27986 whole entry partner, species assumed) above
PI3K-gamma, sequence (P48736 whole entry, species assumed, the tested form may be a part): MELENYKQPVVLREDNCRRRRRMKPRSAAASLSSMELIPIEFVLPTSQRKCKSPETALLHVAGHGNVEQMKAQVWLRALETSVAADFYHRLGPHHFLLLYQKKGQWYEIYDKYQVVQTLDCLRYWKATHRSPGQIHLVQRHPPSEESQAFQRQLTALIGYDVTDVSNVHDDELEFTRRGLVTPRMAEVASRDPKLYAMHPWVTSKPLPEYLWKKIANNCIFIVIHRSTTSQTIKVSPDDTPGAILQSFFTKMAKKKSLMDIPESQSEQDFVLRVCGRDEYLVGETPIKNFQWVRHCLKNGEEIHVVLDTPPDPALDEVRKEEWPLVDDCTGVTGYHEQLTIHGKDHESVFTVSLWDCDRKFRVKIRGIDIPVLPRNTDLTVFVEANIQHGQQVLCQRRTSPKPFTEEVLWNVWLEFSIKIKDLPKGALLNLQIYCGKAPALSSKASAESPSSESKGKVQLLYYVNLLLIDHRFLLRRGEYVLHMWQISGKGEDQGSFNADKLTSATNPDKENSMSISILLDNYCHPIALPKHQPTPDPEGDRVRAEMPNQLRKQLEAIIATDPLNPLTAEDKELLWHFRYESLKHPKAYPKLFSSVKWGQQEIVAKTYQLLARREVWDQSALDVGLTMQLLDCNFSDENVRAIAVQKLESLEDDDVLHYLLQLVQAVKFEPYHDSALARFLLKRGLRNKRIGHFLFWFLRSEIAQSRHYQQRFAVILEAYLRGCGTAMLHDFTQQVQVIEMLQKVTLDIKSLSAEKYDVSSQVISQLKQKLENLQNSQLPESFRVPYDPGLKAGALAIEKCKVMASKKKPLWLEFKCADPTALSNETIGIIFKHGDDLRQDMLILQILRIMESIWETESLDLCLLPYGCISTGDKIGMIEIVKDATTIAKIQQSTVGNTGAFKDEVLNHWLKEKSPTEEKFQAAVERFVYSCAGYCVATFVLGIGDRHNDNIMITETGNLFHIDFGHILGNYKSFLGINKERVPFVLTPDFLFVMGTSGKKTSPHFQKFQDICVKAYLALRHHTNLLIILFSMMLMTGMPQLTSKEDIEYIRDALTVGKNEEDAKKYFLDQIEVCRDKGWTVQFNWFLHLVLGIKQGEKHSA
PI3K-beta, sequence (P42338 whole entry, species assumed): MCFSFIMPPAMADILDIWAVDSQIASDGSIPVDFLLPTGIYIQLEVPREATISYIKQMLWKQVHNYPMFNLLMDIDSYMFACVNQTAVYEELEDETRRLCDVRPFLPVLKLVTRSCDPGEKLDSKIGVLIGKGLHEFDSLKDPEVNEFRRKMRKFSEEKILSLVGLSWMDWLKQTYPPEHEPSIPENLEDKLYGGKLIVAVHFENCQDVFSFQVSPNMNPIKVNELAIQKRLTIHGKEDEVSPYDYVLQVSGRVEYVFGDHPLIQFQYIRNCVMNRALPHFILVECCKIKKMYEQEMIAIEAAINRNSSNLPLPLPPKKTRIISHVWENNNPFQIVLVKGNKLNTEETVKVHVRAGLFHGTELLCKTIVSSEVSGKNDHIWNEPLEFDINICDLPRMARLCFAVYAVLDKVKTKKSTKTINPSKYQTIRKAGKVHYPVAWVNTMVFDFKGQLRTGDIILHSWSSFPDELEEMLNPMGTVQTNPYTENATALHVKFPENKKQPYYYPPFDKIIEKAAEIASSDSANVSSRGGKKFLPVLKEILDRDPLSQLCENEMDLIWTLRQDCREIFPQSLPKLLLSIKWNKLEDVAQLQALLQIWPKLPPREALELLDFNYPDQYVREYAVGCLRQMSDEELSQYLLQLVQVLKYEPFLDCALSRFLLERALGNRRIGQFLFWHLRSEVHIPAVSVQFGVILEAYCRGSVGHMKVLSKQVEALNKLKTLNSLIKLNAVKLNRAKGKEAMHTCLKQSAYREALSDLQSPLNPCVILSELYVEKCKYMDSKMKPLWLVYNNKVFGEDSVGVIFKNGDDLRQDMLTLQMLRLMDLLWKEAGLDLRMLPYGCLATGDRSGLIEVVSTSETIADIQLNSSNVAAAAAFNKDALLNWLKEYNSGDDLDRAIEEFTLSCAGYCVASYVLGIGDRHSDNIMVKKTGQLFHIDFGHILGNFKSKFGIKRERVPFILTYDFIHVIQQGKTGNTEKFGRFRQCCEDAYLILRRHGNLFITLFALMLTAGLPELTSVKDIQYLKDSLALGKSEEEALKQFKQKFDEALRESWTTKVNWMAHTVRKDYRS
PI3K-beta, sequence (P27986 whole entry partner, species assumed): as the sequence (P27986 whole entry partner, species assumed) above

Structure (SMILES)	IC50 (human TOR)	IC50 (PI3K-gamma)	IC50 (PI3K-delta)	IC50 (PI3K-beta)	IC50 (PI3K-alpha)	melting point
COc1ccc2[nH]c(C(=O)O)c(/C=C3\Oc4cc(O)cc(O)c4C3=O)c2c1 [Example 339, 3-[(Z)-(4,6-Dihydroxy-3-oxo-1-benzofuran-2(3H)-ylidene)methyl]-5-methoxy-1H-indole-2-carboxylic acid]	39.5 nM	8.5 nM	20.3 nM	93.7 nM	5.5 nM	
COc1ccc2c(c1)c(/C=C1\Oc3cc(O)cc(O)c3C1=O)c(C1CC1)n2CCn1cccn1 [Example 340, (2Z)-2-({2-Cyclopropyl-5-methoxy-1-[2-(1H-pyrazol-1-yl)ethyl]-1H-indol-3-yl}methylene)-4,6-dihydroxy-1-benzofuran-3(2H)-one]	< 0.82 nM	3 nM	1.6 nM	7.5 nM	2 nM	
COc1ccc2c(c1)c(/C=C1\Oc3cc(O)cc(O)c3C1=O)c(-c1cnn(C)c1)n2CCN1CCN(C)CC1 [Example 341, (2Z)-4,6-Dihydroxy-2-({5-methoxy-1-[2-(4-methylpiperazin-1-yl)ethyl]-2-(1-methyl-1H-pyrazol-4-yl)-1H-indol-3-yl}methylene)-1-benzofuran-3(2H)-one]	10.8 nM	22.8 nM	0.8 nM	7.1 nM	1.7 nM	
COc1ccc2c(c1)c(/C=C1\Oc3cc(O)cc(O)c3C1=O)c(C1CC1)n2CCN1CCC(O)C1 (stereo not drawn) [Example 342, (2Z)-2-({2-Cyclopropyl-1-[2-(3-hydroxypyrrolidin-1-yl)ethyl]-5-methoxy-1H-indol-3-yl}methylene)-4,6-dihydroxy-1-benzofuran-3(2H)-one]	6.7 nM	32.5 nM	1.5 nM	16.3 nM	4.3 nM	
COc1ccc2c(c1)c(/C=C1\Oc3cc(O)cc(O)c3C1=O)c(C(=O)N(C)C)n2CCCN(C)C [Example 343, 3-[(Z)-(4,6-Dihydroxy-3-oxo-1-benzofuran-2(3H)-ylidene)methyl]-1-[3-(dimethylamino)propyl]-5-methoxy-N,N-dimethyl-1H-indole-2-carboxamide]	> 160 nM	292 nM	2.5 nM	71 nM	12 nM	
COc1ccc2c(c1)c(/C=C1\Oc3cc(O)cc(O)c3C1=O)c(-c1c(C)noc1C)n2CCN1CCN(C)CC1 [Example 344, (2Z)-2-({2-(3,5-Dimethylisoxazol-4-yl)-5-methoxy-1-[2-(4-methylpiperazin-1-yl)ethyl]-1H-indol-3-yl}methylene)-4,6-dihydroxy-1-benzofuran-3(2H)-one]	5.25 nM	99 nM	0.9 nM	5.9 nM	4.4 nM	
COc1ccc2c(c1)c(/C=C1\Oc3cc(O)ccc3C1=O)c(C(=O)N(C)C)n2CCCN(C)C [Example 345, 1-[3-(Dimethylamino)propyl]-3-[(Z)-(6-hydroxy-3-oxo-1-benzofuran-2(3H)-ylidene)methyl]-5-methoxy-N,N-dimethyl-1H-indole-2-carboxamide]	> 4000 nM	692 nM	2 nM	100 nM	24 nM	
COc1ccc2[nH]c(CN3CCN(C)CC3)c(/C=C3\Oc4cc(O)cc(O)c4C3=O)c2c1 [Example 346, (2Z)-4,6-Dihydroxy-2-({5-methoxy-2-[(4-methylpiperazin-1-yl)methyl]-1H-indol-3-yl}methylene)-1-benzofuran-3(2H)-one]	77 nM	55 nM	3 nM	7.7 nM	6.1 nM	
COc1ccc2c(c1)c(/C=C1\Oc3cc(O)cc(O)c3C1=O)c(C(=O)N(C)C)n2CCO [Example 348, 3-[(Z)-(4,6-Dihydroxy-3-oxo-1-benzofuran-2(3H)-ylidene)methyl]-1-(2-hydroxyethyl)-5-methoxy-N,N-dimethyl-1H-indole-2-carboxamide]	17.5 nM	60.5 nM	12.5 nM	76.5 nM	11.5 nM	
COc1ccc2c(c1)c(/C=C1\Oc3cc(O)c(Br)cc3C1=O)c(C)n2CCN1CCN(C)CC1 [Example 349, (2Z)-5-Bromo-6-hydroxy-2-({5-methoxy-2-methyl-1-[2-(4-methylpiperazin-1-yl)ethyl]-1H-indol-3-yl}methylene)-1-benzofuran-3(2H)-one]	> 20000 nM	5590 nM	19 nM	931 nM	82.5 nM	
COc1ccc2c(c1)c(/C=C1\Oc3cc(O)c(F)cc3C1=O)c(C)n2CCN1CCN(C)CC1 [Example 351, (2Z)-5-Fluoro-6-hydroxy-2-({5-methoxy-2-methyl-1-[2-(4-methylpiperazin-1-yl)ethyl]-1H-indol-3-yl}methylene)-1-benzofuran-3(2H)-one]	> 800 nM	3270 nM	9 nM	505 nM	66 nM	
COc1ccc2[nH]c(CN(C)C)c(/C=C3\Oc4cc(O)cc(O)c4C3=O)c2c1 [Example 353, (2Z)-2-({2-[(Dimethylamino)methyl]-5-methoxy-1H-indol-3-yl}methylene)-4,6-dihydroxy-1-benzofuran-3(2H)-one]	22 nM	38 nM	2 nM	8 nM	4 nM	
COc1ccc2[nH]c(-c3cncnc3)c(/C=C3\Oc4cc(O)cc(O)c4C3=O)c2c1 [Example 354, (2Z)-4,6-Dihydroxy-2-[(5-methoxy-2-pyrimidin-5-yl-1H-indol-3-yl)methylene]-1-benzofuran-3(2H)-one]	18 nM	55 nM	14.5 nM	44 nM	6.5 nM	
COc1ccc2c(c1)c(/C=C1\Oc3cc(O)ccc3C1=O)c(C1CC1)n2CCn1cccn1 [Example 355, (2Z)-2-({2-Cyclopropyl-5-methoxy-1-[2-(1H-pyrazol-1-yl)ethyl]-1H-indol-3-yl}methylene)-6-hydroxy-1-benzofuran-3(2H)-one]	13 nM	36 nM	2.5 nM	17 nM	8.6 nM	
COc1ccc2c(c1)c(/C=C1\Oc3cc(O)ccc3C1=O)c(C)n2CCCN1CCCC1 [Example 356, (2Z)-6-Hydroxy-2-{[5-methoxy-2-methyl-1-(3-pyrrolidin-1-ylpropyl)-1H-indol-3-yl]methylene}-1-benzofuran-3(2H)-one]	> 800 nM	408 nM	1.2 nM	116 nM	15.5 nM	
COc1ccc2c(c1)c(/C=C1\Oc3cc(O)ccc3C1=O)c(C)n2CCCN1CCCCC1 [Example 357, (2Z)-6-Hydroxy-2-{[5-methoxy-2-methyl-1-(3-piperidin-1-ylpropyl)-1H-indol-3-yl]methylene}-1-benzofuran-3(2H)-one]	> 800 nM	322 nM	< 1 nM	98.5 nM	11 nM	
COc1ccc2c(c1)c(/C=C1\Oc3cc(O)ccc3C1=O)c(C)n2CCCN1CCCCCC1 [Example 358, (2Z)-2-{[1-(3-Azepan-1-ylpropyl)-5-methoxy-2-methyl-1H-indol-3-yl]methylene}-6-hydroxy-1-benzofuran-3(2H)-one]	> 800 nM	239 nM	< 1 nM	95.5 nM	7.5 nM	
COc1ccc2c(c1)c(/C=C1\Oc3cc(O)cc(F)c3C1=O)c(C)n2CCN1CCN(C)CC1 [Example 359, (2Z)-4-Fluoro-6-hydroxy-2-({5-methoxy-2-methyl-1-[2-(4-methylpiperazin-1-yl)ethyl]-1H-indol-3-yl}methylene)-1-benzofuran-3(2H)-one]	> 800 nM	232 nM	1.5 nM	18.5 nM	11 nM	
COc1ccc2[nH]c(-c3c(C)noc3C)c(/C=C3\Oc4cc(O)cc(O)c4C3=O)c2c1 [Example 360, (2Z)-2-{[2-(3,5-Dimethylisoxazol-4-yl)-5-methoxy-1H-indol-3-yl]methylene}-4,6-dihydroxy-1-benzofuran-3(2H)-one]	1.25 nM	3.2 nM	0.3 nM	1.3 nM	1.5 nM	
COc1ccc2c(c1)c(/C=C1\Oc3cc(O)ccc3C1=O)c(C1CC1)n2CCN1CCN(C)CC1 [Example 362, (2Z)-2-({2-Cyclopropyl-5-methoxy-1-[2-(4-methylpiperazin-1-yl)ethyl]-1H-indol-3-yl}methylene)-6-hydroxy-1-benzofuran-3(2H)-one]	210 nM	329 nM	1.5 nM	8 nM	10.5 nM	
COc1ccc(-c2cccc3c2c(/C=C2\Oc4cc(O)cc(O)c4C2=O)cn3C)cc1 [Example 376, (2Z)-4,6-dihydroxy-2-{[4-(4-methoxyphenyl)-1-methyl-1H-indol-3-yl]methylene}benzofuran-3(2H)-one]	128 nM	3800 nM			2080 nM	289 to 291 °C (dec.)
COc1cc(OC)c2c(c1)O/C(=C\c1c(-c3ccccc3)n(C)c3ccccc13)C2=O [Example 409, (2Z)-4,6-dimethoxy-2-[(1-methyl-2-phenyl-1H-indol-3-yl)methylene]benzofuran-3(2H)-one]	> 20000 nM	1990 nM			> 10000 nM	257 to 258 °C

— patent US20090311217A1, “3-SUBSTITUTED-1H-INDOLE COMPOUNDS, THEIR USE AS MTOR KINASE AND PI3 KINASE INHIBITORS, AND THEIR SYNTHESES” (priority 2008, published 2009)
